For 18 compounds, Activity and IC50 results are on record in ChEMBL document CHEMBL1143150, “Design of azidoproline containing gluten peptides to suppress CD4+ T-cell responses associated with celiac disease” (Bioorg Med Chem, 2008).

One test has as its system T-cell. Put plainly: Blockade of HLA-DQ2 specific human CD4+ T cell proliferation in presence of alpha-9-gluten peptide after 48 hrs. Format: functional, cell-based.
Test [1] is described as follows: Binding affinity to HLA-DQ2 expressed in EBV-transformed B cells. The format is cell-based.

Active and inactive are the calls of the source. The rule behind the calls is not given here. Numbered stars: 1 amine (or outer) side, 2 acyl side, 3 side chain; on linkers, the order of the positions; unused ones are H or OH. Square brackets hold non-standard residues; d marks the D form. Side chains are listed from the residue outwards. Peptide text beside a SMILES is read from it. * marks the point of attachment. X3 = O=C([C@@H]1C[C@@H](n2cc(C(=O)[*:3])nn2)CN1[*:1])[*:2]; X1 = O=C([C@@H]1C[C@H](n2cc(C(=O)[*:3])nn2)CN1[*:1])[*:2]; X5 = CNC(=O)c1cn([C@@H]2C[C@@H](C(=O)[*:2])N([*:1])C2)nn1; X6 = CNC(=O)c1cn([C@H]2C[C@@H](C(=O)[*:2])N([*:1])C2)nn1; X4 = [N-]=[N+]=N[C@@H]1C[C@@H](C(=O)[*:2])N([*:1])C1; Pro(cis-4-N3) = [N-]=[N+]=N[C@@H]1CN[C@H](C(=O)O)C1; pGlu = O=C1CC[C@@H](C(=O)O)N1; X2 = NC(=O)CCCC(=O)*

`COC(=O)[C@H](Cc1ccccc1)NC(=O)c1cn([C@H]2C[C@@H](C(=O)N[C@@H](CCC(N)=O)C(=O)N3CCC[C@H]3C(=O)N[C@@H](CCC(=O)O)C(=O)N[C@@H](CC(C)C)C(=O)N3CCC[C@H]3C(=O)N[C@@H](Cc3ccc(O)cc3)C(=O)N3CCC[C@H]3C(=O)N[C@@H](CCC(N)=O)C(=O)O)N(C(=O)[C@H](Cc3ccccc3)NC(=O)[C@@H]3CCCN3C(=O)[C@H](CCC(N)=O)NC(=O)[C@H](CC(C)C)NC(=O)[C@@H]3CCC(=O)N3)C2)nn1` ([pGlu]LQPF[X1]([Phe-OMe])QPELPYPQ-OH): the result with T-cell was Active. Also, in test [1] (read-out: IC50), the IC50 (commonly the point on the concentration scale where inhibition reaches its midpoint) was 1.3 µM.

Consider `CC(C)C[C@H](NC(=O)[C@@H]1CCC(=O)N1)C(=O)N[C@@H](CCC(N)=O)C(=O)N1CCC[C@H]1C(=O)N[C@@H](Cc1ccccc1)C(=O)N1C[C@@H](N=[N+]=[N-])C[C@H]1C(=O)N[C@@H](CCC(N)=O)C(=O)N1CCC[C@H]1C(=O)N[C@@H](CCC(=O)O)C(=O)N[C@@H](CC(C)C)C(=O)N1CCC[C@H]1C(=O)N[C@@H](Cc1ccc(O)cc1)C(=O)N1CCC[C@H]1C(=O)N[C@@H](CCC(N)=O)C(=O)O` ([pGlu]LQPF[Pro(cis-4-N3)]QPELPYPQ-OH), for which the IC50 in test [1] (read-out: IC50) worked out at 3.2 µM.

With `CNC(=O)c1cn([C@@H]2C[C@@H](C(=O)N[C@@H](CCC(N)=O)C(=O)N3CCC[C@H]3C(=O)N[C@@H](CCC(=O)O)C(=O)N[C@@H](CC(C)C)C(=O)N3CCC[C@H]3C(=O)N[C@@H](Cc3ccc(O)cc3)C(=O)N3CCC[C@H]3C(=O)N[C@@H](CCC(N)=O)C(=O)O)N(C(=O)[C@H](Cc3ccccc3)NC(=O)[C@@H]3CCCN3C(=O)[C@H](CCC(N)=O)NC(=O)[C@H](CC(C)C)NC(=O)[C@@H]3CCC(=O)N3)C2)nn1` ([pGlu]LQPF[X5]QPELPYPQ-OH), the half-maximal inhibitory concentration (IC50) in test [1] (read-out: IC50) stood at 5.8 µM.

Regarding `COC(=O)[C@H](Cc1ccccc1)NC(=O)c1cn([C@@H]2C[C@@H](C(=O)N[C@@H](CCC(N)=O)C(=O)N3CCC[C@H]3C(=O)N[C@@H](CCC(=O)O)C(=O)N[C@@H](CC(C)C)C(=O)N3CCC[C@H]3C(=O)N[C@@H](Cc3ccc(O)cc3)C(=O)N3CCC[C@H]3C(=O)N[C@@H](CCC(N)=O)C(=O)O)N(C(=O)[C@H](Cc3ccccc3)NC(=O)[C@@H]3CCCN3C(=O)[C@H](CCC(N)=O)NC(=O)[C@H](CC(C)C)NC(=O)[C@@H]3CCC(=O)N3)C2)nn1` ([pGlu]LQPF[X3]([Phe-OMe])QPELPYPQ-OH), in test [1] (read-out: IC50), the 50% inhibitory concentration (IC50) amounted to 29.2 µM.

`CNC(=O)c1cn([C@@H]2C[C@@H](C(=O)N[C@@H](CCC(=O)O)C(=O)N[C@@H](CC(C)C)C(=O)N3CCC[C@H]3C(=O)N[C@@H](Cc3ccc(O)cc3)C(=O)N3CCC[C@H]3C(=O)N[C@@H](CCC(N)=O)C(=O)O)N(C(=O)[C@H](CCC(N)=O)NC(=O)[C@@H]3CCCN3C(=O)[C@H](Cc3ccccc3)NC(=O)[C@@H]3CCCN3C(=O)[C@H](CCC(N)=O)NC(=O)[C@H](CC(C)C)NC(=O)[C@@H]3CCC(=O)N3)C2)nn1` ([pGlu]LQPFPQ[X5]ELPYPQ-OH): the concentration for half-maximal inhibition (IC50) in test [1] (read-out: IC50) worked out at 5.8 µM.

Compound `CC(C)C[C@H](NC(=O)[C@H](CCC(N)=O)NC(=O)[C@@H](N)CC(C)C)C(=O)N[C@@H](CCC(N)=O)C(=O)N1CCC[C@H]1C(=O)N[C@@H](Cc1ccccc1)C(=O)N1C[C@@H](N=[N+]=[N-])C[C@H]1C(=O)N[C@@H](CCC(N)=O)C(=O)N1CCC[C@H]1C(=O)N[C@@H](CCC(=O)O)C(=O)N[C@@H](CC(C)C)C(=O)N1CCC[C@H]1C(=O)N[C@@H](Cc1ccc(O)cc1)C(=O)N1CCC[C@H]1C(=O)N[C@@H](CCC(N)=O)C(=O)O` registered a concentration for half-maximal inhibition (IC50) in test [1] of 8.6 µM.

As for `CC(C)C[C@H](NC(=O)[C@@H]1CCC(=O)N1)C(=O)N[C@@H](CCC(N)=O)C(=O)N1CCC[C@H]1C(=O)N[C@@H](Cc1ccccc1)C(=O)N1CCC[C@H]1C(=O)N[C@@H](CCC(N)=O)C(=O)N1C[C@H](N=[N+]=[N-])C[C@H]1C(=O)N[C@@H](CCC(=O)O)C(=O)N[C@@H](CC(C)C)C(=O)N1CCC[C@H]1C(=O)N[C@@H](Cc1ccc(O)cc1)C(=O)N1CCC[C@H]1C(=O)N[C@@H](CCC(N)=O)C(=O)O` ([pGlu]LQPFPQ[X4]ELPYPQ-OH), in test [1] (read-out: IC50), the 50% inhibitory concentration (IC50) came out at 2.3 µM.

Take `CNC(=O)c1cn([C@H]2C[C@@H](C(=O)N[C@@H](CCC(N)=O)C(=O)N3CCC[C@H]3C(=O)N[C@@H](CCC(=O)O)C(=O)N[C@@H](CC(C)C)C(=O)N3CCC[C@H]3C(=O)N[C@@H](Cc3ccc(O)cc3)C(=O)N3CCC[C@H]3C(=O)N[C@@H](CCC(N)=O)C(=O)O)N(C(=O)[C@H](Cc3ccccc3)NC(=O)[C@@H]3CCCN3C(=O)[C@H](CCC(N)=O)NC(=O)[C@H](CC(C)C)NC(=O)[C@@H]3CCC(=O)N3)C2)nn1` ([pGlu]LQPF[X6]QPELPYPQ-OH): in test [1] (read-out: IC50), the 50% inhibitory concentration (IC50) was found to be 4.6 µM.

On to `CC(C)C[C@H](NC(=O)CN)C(=O)N[C@@H](CCC(N)=O)C(=O)N1CCC[C@H]1C(=O)N[C@@H](Cc1ccccc1)C(=O)N1C[C@@H](N=[N+]=[N-])C[C@H]1C(=O)N[C@@H](CCC(N)=O)C(=O)N1CCC[C@H]1C(=O)N[C@@H](CCC(=O)O)C(=O)N[C@@H](CC(C)C)C(=O)N1CCC[C@H]1C(=O)N[C@@H](Cc1ccc(O)cc1)C(=O)N1CCC[C@H]1C(=O)N[C@@H](CCC(N)=O)C(=O)O` (H-GLQPF[Pro(cis-4-N3)]QPELPYPQ-OH), for which the 50% inhibitory concentration (IC50) in test [1] was 9.4 µM.

In the case of `CC(C)C[C@H](NC(=O)CCCC(N)=O)C(=O)N[C@@H](CCC(N)=O)C(=O)N1CCC[C@H]1C(=O)N[C@@H](Cc1ccccc1)C(=O)N1C[C@@H](N=[N+]=[N-])C[C@H]1C(=O)N[C@@H](CCC(N)=O)C(=O)N1CCC[C@H]1C(=O)N[C@@H](CCC(=O)O)C(=O)N[C@@H](CC(C)C)C(=O)N1CCC[C@H]1C(=O)N[C@@H](Cc1ccc(O)cc1)C(=O)N1CCC[C@H]1C(=O)N[C@@H](CCC(N)=O)C(=O)O` (X2-LQPF[Pro(cis-4-N3)]QPELPYPQ-OH), the 50% inhibitory concentration (IC50) in test [1] was determined as 7.2 µM.

Take `COC(=O)[C@H](Cc1ccccc1)NC(=O)c1cn([C@H]2C[C@@H](C(=O)N[C@@H](CCC(=O)O)C(=O)N[C@@H](CC(C)C)C(=O)N3CCC[C@H]3C(=O)N[C@@H](Cc3ccc(O)cc3)C(=O)N3CCC[C@H]3C(=O)N[C@@H](CCC(N)=O)C(=O)O)N(C(=O)[C@H](CCC(N)=O)NC(=O)[C@@H]3CCCN3C(=O)[C@H](Cc3ccccc3)NC(=O)[C@@H]3CCCN3C(=O)[C@H](CCC(N)=O)NC(=O)[C@H](CC(C)C)NC(=O)[C@@H]3CCC(=O)N3)C2)nn1` ([pGlu]LQPFPQ[X1]([Phe-OMe])ELPYPQ-OH): the 50% inhibitory concentration (IC50) in test [1] (read-out: IC50) was 2.3 µM.

For the compound `COC(=O)[C@H](Cc1ccccc1)NC(=O)c1cn([C@@H]2C[C@@H](C(=O)N[C@@H](CCC(=O)O)C(=O)N[C@@H](CC(C)C)C(=O)N3CCC[C@H]3C(=O)N[C@@H](Cc3ccc(O)cc3)C(=O)N3CCC[C@H]3C(=O)N[C@@H](CCC(N)=O)C(=O)O)N(C(=O)[C@H](CCC(N)=O)NC(=O)[C@@H]3CCCN3C(=O)[C@H](Cc3ccccc3)NC(=O)[C@@H]3CCCN3C(=O)[C@H](CCC(N)=O)NC(=O)[C@H](CC(C)C)NC(=O)[C@@H]3CCC(=O)N3)C2)nn1` ([pGlu]LQPFPQ[X3]([Phe-OMe])ELPYPQ-OH), in test [1] (read-out: IC50), the concentration for half-maximal inhibition (IC50) came to 3.2 µM.

In the case of `CC(C)C[C@H](NC(=O)[C@@H]1CCC(=O)N1)C(=O)N[C@@H](CCC(N)=O)C(=O)N1CCC[C@H]1C(=O)N[C@@H](Cc1ccccc1)C(=O)N1C[C@H](N=[N+]=[N-])C[C@H]1C(=O)N[C@@H](CCC(N)=O)C(=O)N1CCC[C@H]1C(=O)N[C@@H](CCC(=O)O)C(=O)N[C@@H](CC(C)C)C(=O)N1CCC[C@H]1C(=O)N[C@@H](Cc1ccc(O)cc1)C(=O)N1CCC[C@H]1C(=O)N[C@@H](CCC(N)=O)C(=O)O` ([pGlu]LQPF[X4]QPELPYPQ-OH), the IC50 in test [1] (read-out: IC50) amounted to 5.5 µM.

Regarding `CNC(=O)c1cn([C@H]2C[C@@H](C(=O)N[C@@H](CCC(=O)O)C(=O)N[C@@H](CC(C)C)C(=O)N3CCC[C@H]3C(=O)N[C@@H](Cc3ccc(O)cc3)C(=O)N3CCC[C@H]3C(=O)N[C@@H](CCC(N)=O)C(=O)O)N(C(=O)[C@H](CCC(N)=O)NC(=O)[C@@H]3CCCN3C(=O)[C@H](Cc3ccccc3)NC(=O)[C@@H]3CCCN3C(=O)[C@H](CCC(N)=O)NC(=O)[C@H](CC(C)C)NC(=O)[C@@H]3CCC(=O)N3)C2)nn1` ([pGlu]LQPFPQ[X6]ELPYPQ-OH), the IC50 in test [1] (read-out: IC50) amounted to 9 µM.

Turning to `CC(C)C[C@H](NC(=O)[C@@H](N)CCC(N)=O)C(=O)N[C@@H](CCC(N)=O)C(=O)N1CCC[C@H]1C(=O)N[C@@H](Cc1ccccc1)C(=O)N1C[C@@H](N=[N+]=[N-])C[C@H]1C(=O)N[C@@H](CCC(N)=O)C(=O)N1CCC[C@H]1C(=O)N[C@@H](CCC(=O)O)C(=O)N[C@@H](CC(C)C)C(=O)N1CCC[C@H]1C(=O)N[C@@H](Cc1ccc(O)cc1)C(=O)N1CCC[C@H]1C(=O)N[C@@H](CCC(N)=O)C(=O)O` (H-QLQPF[Pro(cis-4-N3)]QPELPYPQ-OH), the IC50 in test [1] was determined as 10.7 µM.

In the case of `CC(C)C[C@H](NC(=O)[C@H](CCC(=O)O)NC(=O)[C@@H]1CCCN1C(=O)[C@H](CCC(N)=O)NC(=O)[C@@H]1C[C@H](N=[N+]=[N-])CN1C(=O)[C@H](Cc1ccccc1)NC(=O)[C@@H]1CCCN1C(=O)[C@H](CCC(N)=O)NC(=O)[C@@H](N)CC(C)C)C(=O)N1CCC[C@H]1C(=O)N[C@@H](Cc1ccc(O)cc1)C(=O)N1CCC[C@H]1C(=O)N[C@@H](CCC(N)=O)C(=O)O` (H-LQPF[Pro(cis-4-N3)]QPELPYPQ-OH), the IC50 in test [1] came to 6.9 µM.

`CC(C)C[C@H](NC(=O)[C@@H](N)CCC(N)=O)C(=O)N[C@@H](CCC(N)=O)C(=O)N1CCC[C@H]1C(=O)N[C@@H](Cc1ccccc1)C(=O)N1CCC[C@H]1C(=O)N[C@@H](CCC(N)=O)C(=O)N1CCC[C@H]1C(=O)N[C@@H](CCC(=O)O)C(=O)N[C@@H](CC(C)C)C(=O)N1CCC[C@H]1C(=O)N[C@@H](Cc1ccc(O)cc1)C(=O)O` (H-QLQPFPQPELPY-OH) gave an IC50 in test [1] of 17.2 µM.

As to `CC(C)C[C@H](NC(=O)[C@@H]1CCC(=O)N1)C(=O)N[C@@H](CCC(N)=O)C(=O)N1CCC[C@H]1C(=O)N[C@@H](Cc1ccccc1)C(=O)N1CCC[C@H]1C(=O)N[C@@H](CCC(N)=O)C(=O)N1C[C@@H](N=[N+]=[N-])C[C@H]1C(=O)N[C@@H](CCC(=O)O)C(=O)N[C@@H](CC(C)C)C(=O)N1CCC[C@H]1C(=O)N[C@@H](Cc1ccc(O)cc1)C(=O)N1CCC[C@H]1C(=O)N[C@@H](CCC(N)=O)C(=O)O` ([pGlu]LQPFPQ[Pro(cis-4-N3)]ELPYPQ-OH), the IC50 in test [1] (read-out: IC50) came out at 2.4 µM.
